Source: BindingDB's records for doi:10.1016/s0960-894x(02)00084-7 (The University of Tokyo, 2002)

Assays:
[1] = Inhibitory activity (RA2) against Prostaglandin G/H synthase 2 was calculated relative to aspirin
[2] = Inhibitory activity (RA1) against Prostaglandin G/H synthase 1 was calculated relative to aspirin

## O=C1CCC(N2C(=O)c3ccccc3C2=O)C(=O)N1 (racemic) [(+/-)-thalidomide]
[1]
  relative activity vs aspirin: 0.5
[2]
  relative activity vs aspirin: 0.37

## Cc1cc(C)c(C)c(N2C(=O)c3ccccc3C2=O)c1C [2-(2,3,5,6-Tetramethyl-phenyl)-isoindole-1,3-dione]
[1]
  relative activity vs aspirin: 0.67
[2]
  relative activity vs aspirin: 0.2

## Cc1cc(C)c(C)c(N2C(=O)c3ccccc3C2=O)c1 [2-(2,3,5-Trimethyl-phenyl)-isoindole-1,3-dione]
[1]
  relative activity vs aspirin: 1.18
[2]
  relative activity vs aspirin: 0.33

## O=C1c2ccccc2C(=O)N1c1c[nH]c(=O)[nH]c1=O [2-(2,4-Dioxo-1,2,3,4-tetrahydro-pyrimidin-5-yl)-isoindole-1,3-dione]
[1]
  relative activity vs aspirin: 3.81
[2]
  relative activity vs aspirin: 0.44

## O=C1CCN(N2C(=O)c3ccccc3C2=O)C(=O)N1 [2-(2,4-Dioxo-tetrahydro-pyrimidin-1-yl)-isoindole-1,3-dione]
[1]
  relative activity vs aspirin: 0.9
[2]
  relative activity vs aspirin: 0.6

## O=C1NCCCC1N1C(=O)c2ccccc2C1=O (centres undefined) [2-(2-Oxo-piperidin-3-yl)-isoindole-1,3-dione]
[1]
  relative activity vs aspirin: 1.21
[2]
  relative activity vs aspirin: 0.85

## Cc1cc(C)cc(-n2c(O)cc3ccccc3c2=O)c1 [2-(3,5-Dimethyl-phenyl)-4H-isoquinoline-1,3-dione]
[1]
  relative activity vs aspirin: 38.5
[2]
  relative activity vs aspirin: 95.2

## Cc1cc(C)cc(N2C(=O)c3ccccc3C2=O)c1 [2-(3,5-Dimethyl-phenyl)-isoindole-1,3-dione]
[1]
  relative activity vs aspirin: 13.2
[2]
  relative activity vs aspirin: 7.4

## COc1cc(OC)nc(-n2c(O)cc3ccccc3c2=O)n1 [2-(4,6-Dimethoxy-pyrimidin-2-yl)-4H-isoquinoline-1,3-dione]
[1]
  relative activity vs aspirin: 3.57
[2]
  relative activity vs aspirin: 10.2

## Cc1cc(C)nc(-n2c(O)cc3ccccc3c2=O)c1 [2-(4,6-Dimethyl-pyridin-2-yl)-4H-isoquinoline-1,3-dione]
[1]
  relative activity vs aspirin: 6.67
[2]
  relative activity vs aspirin: 12.5

## Cc1cc(C)nc(-n2c(O)cc3ccccc3c2=O)n1 [2-(4,6-Dimethyl-pyrimidin-2-yl)-4H-isoquinoline-1,3-dione]
[1]
  relative activity vs aspirin: 8.33
[2]
  relative activity vs aspirin: 3.85

## COc1cc(C)nc(-n2c(O)cc3ccccc3c2=O)n1 [2-(4-Methoxy-6-methyl-pyrimidin-2-yl)-4H-isoquinoline-1,3-dione]
[1]
  relative activity vs aspirin: 10
[2]
  relative activity vs aspirin: 21.7

## C[C@@]1(N2C(=O)c3cccc([N+](=O)[O-])c3C2=O)CCC(=O)NC1=O [2-((R)-3-Methyl-2,6-dioxo-piperidin-3-yl)-4-nitro-isoindole-1,3-dione]
[1]
  relative activity vs aspirin: 0.1
[2]
  relative activity vs aspirin: 0.4

## C[C@@]1(N2C(=O)c3ccc([N+](=O)[O-])cc3C2=O)CCC(=O)NC1=O [2-((R)-3-Methyl-2,6-dioxo-piperidin-3-yl)-5-nitro-isoindole-1,3-dione]
[1]
  relative activity vs aspirin: 1.51
[2]
  relative activity vs aspirin: 0.54

## C[C@@]1(N2C(=O)c3ccccc3C2=O)CCC(=O)NC1=O [2-((R)-3-Methyl-2,6-dioxo-piperidin-3-yl)-isoindole-1,3-dione]
[1]
  relative activity vs aspirin: 0.73
[2]
  relative activity vs aspirin: 0.29

## O=C1c2ccccc2C(=O)N1CCn1ccc(=O)[nH]c1=O [2-[2-(2,4-Dioxo-3,4-dihydro-2H-pyrimidin-1-yl)-ethyl]-isoindole-1,3-dione]
[1]
  relative activity vs aspirin: 0.65
[2]
  relative activity vs aspirin: 1.23

## C[C@@]1(N2C(=O)c3cccc(N)c3C2=O)CCC(=O)NC1=O [4-Amino-2-((R)-3-methyl-2,6-dioxo-piperidin-3-yl)-isoindole-1,3-dione]
[2]
  relative activity vs aspirin: 0.17

## C[C@@]1(N2C(=O)c3ccc(N)cc3C2=O)CCC(=O)NC1=O [5-Amino-2-((R)-3-methyl-2,6-dioxo-piperidin-3-yl)-isoindole-1,3-dione]
[2]
  relative activity vs aspirin: 0.12
